Experimental data taken from US5955489A, “Taxane derivatives, the preparation thereof and formulations containing them” (Indea S.p.A., priority 1996, dated 1999).
Read-outs that look alike come from different tables or passages of the source.

What was measured:
[1] = tested on: Line MCF7-ADRr (adriamycin-resistant); experiment: cytotoxicity on an adriamycin-resistant cell line (Line MCF7-ADRr); type: cell-based; settings: read-out: IC50 Line MCF7-ADRr
[2] = tested on: Line MDA (normal ovary cell line); experiment: cytotoxicity on a normal ovary cell line (Line MDA); type: cell-based; settings: read-out: IC50 Line MDA
[3] = Line MDA, normal ovary cell line

13-(N-Boc-phenylisoserinyl)-10-dehydro-10-deacetyl-baccatine III pyrazoline [Compound of example 4]
IC50 [1]: 264 nM | IC50 [2, 3]: 1.2 nM

CC(=O)O[C@@]12CO[C@@H]1CC1NN=C3C(=O)C4=C(C)[C@@H](OC(=O)[C@H](O)[C@@H](NC(=O)c5ccccc5)c5ccccc5)C[C@@](O)([C@@H](OC(=O)c5ccccc5)[C@H]2[C@]31C)C4(C)C (stereo partly drawn) [Compound of example 2, 10-deacetyl-10-dehydro-Paclitaxel pyrazoline]
IC50 [2]: 3.1 nM

CC(=O)O[C@@]12CO[C@@H]1CC1NN=C3C(=O)C4=C(C)[C@@H](OC(=O)[C@H](O)[C@H](CC(C)C)NC(=O)OC(C)(C)C)C[C@@](O)([C@@H](OC(=O)c5ccccc5)[C@H]2[C@]31C)C4(C)C (stereo partly drawn) [Compound of example 5, 13-(N-Boc-3'-isobutyl)-isoserinyl-10-dehydrobaccatine III pyrazoline]
IC50 [2]: 1.4 nM

CC(=O)O[C@@]12CO[C@@H]1CC1NN=C3C(=O)C4=C(C)[C@@H](OC(=O)[C@H](O)[C@@H](NC(=O)OC(C)(C)C)c5ccccc5)[C@@H]5OC(=O)O[C@]5([C@@H](OC(=O)c5ccccc5)[C@H]2[C@]31C)C4(C)C (stereo partly drawn) [Compound of example 6, 13-(N-Boc-phenyl-isoserinyl)-1,14-carbonate10-dehydro-10-deacetyl-baccatine III pyrazoline]
IC50 [2]: 2.1 nM

CC(=O)O[C@@]12CO[C@@H]1C[C@H](O)[C@@]1(C)C(=O)[C@H](O)C3=C(C)[C@@H](OC(=O)[C@H](O)[C@@H](NC(=O)OC(C)(C)C)c4ccccc4)C[C@@](O)([C@@H](OC(=O)c4ccccc4)[C@H]21)C3(C)C [Docetaxel, reference compound]
IC50 ([1]; Line MCF7-ADRr, adriamycin-resistant): 700 nM | IC50 [2, 3]: 0.8 nM

CC(=O)O[C@H]1C(=O)[C@@]2(C)[C@H]([C@H](OC(=O)c3ccccc3)[C@]3(O)C[C@H](OC(=O)[C@H](O)[C@@H](NC(=O)c4ccccc4)c4ccccc4)C(C)=C1C3(C)C)[C@]1(OC(C)=O)CO[C@@H]1C[C@@H]2O [Paclitaxel, reference compound]
IC50 [1]: 2600 nM | IC50 [2]: 2.4 nM
